Results reported in patent US20060205949A1, “Crystalline forms of a biphenyl compound” (THERAVANCE, INC., priority 2005, published 2006).
pKi: −log10 of the molar value.

Key:
[1] = molecular target: T1, hM2 receptor (CHO-K1 cells) (Homo sapiens, UniProt P08172); test: Blockade of agonist-mediated [35S]GTPγS binding; type: biochemical; conditions: CHO-K1 cells expressing the hM2 receptor; this or a similar assay; read-out: Ki value for blockade of oxotremorine-stimulated [35S]GTPγS binding
T1 construct: expressed in transfected cells; host or cells: CHO-K1 cells
T1 sequence (P08172 1-466): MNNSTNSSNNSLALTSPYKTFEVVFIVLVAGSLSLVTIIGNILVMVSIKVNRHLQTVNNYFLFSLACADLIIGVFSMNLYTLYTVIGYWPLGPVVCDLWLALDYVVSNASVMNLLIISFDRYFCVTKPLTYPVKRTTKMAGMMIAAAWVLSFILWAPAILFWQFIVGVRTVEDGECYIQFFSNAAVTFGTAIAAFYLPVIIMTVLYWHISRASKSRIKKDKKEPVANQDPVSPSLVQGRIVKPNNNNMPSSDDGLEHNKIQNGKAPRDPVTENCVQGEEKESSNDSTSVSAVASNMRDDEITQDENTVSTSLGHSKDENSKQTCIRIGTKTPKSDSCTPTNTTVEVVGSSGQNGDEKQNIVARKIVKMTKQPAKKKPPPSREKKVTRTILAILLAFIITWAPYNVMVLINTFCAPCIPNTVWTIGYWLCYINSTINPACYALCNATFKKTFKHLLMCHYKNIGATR
Procedure: In a second functional assay, the functional potency of test compounds can be determined by measuring the ability of the compounds to block oxotremorine-stimulated [^35S]GTPγS binding in CHO-K1 cells expressing the hM2 receptor.
At the time of use, frozen membranes were thawed and then diluted in assay buffer with a final target tissue concentration of 5-10 μg protein per well. The membranes were briefly homogenized using a Polytron PT-2100 tissue disrupter and then added to the assay plates. The EC90 value (effective concentration for 90% maximal response) for stimulation of [^35S]GTPγS binding by the agonist oxotremorine was determined in each experiment.
The assay plates were then incubated at 37° C. for 60 minutes. The assay plates were filtered over 1% BSA-pretreated GF/B filters using a PerkinElmer 96-well harvester. The plates were rinsed with ice-cold wash buffer for 3×3 seconds and then air or vacuum dried. Microscint-20 scintillation liquid (50 μL) was added to each well, and each plate was sealed and radioactivity counted on a topcounter (PerkinElmer). Data were analyzed by nonlinear regression analysis with the GraphPad Prism Software package (GraphPad Software, Inc., San Diego, Calif.) using the non-linear regression, one-site competition equation. […]

[2] = test system: ACh-induced bronchoconstriction; test: Duration of bronchoprotection in guinea pig model of acetylcholine-induced bronchoconstriction; type: in vivo; conditions: inhalation, 1.5 hours post-dose, expected
Procedure: Groups of six male guinea pigs (Duncan-Hartley (HsdPoc:DH) Harlan, Madison, Wis.) weighing between 250 and 350 g are individually identified by cage cards. Throughout the study animals are allowed access to food and water ad libitum.
Test compounds are administered via inhalation over 10 minutes in a whole-body exposure dosing chamber (R&S Molds, San Carlos, Calif.). The dosing chambers are arranged so that an aerosol was simultaneously delivered to 6 individual chambers from a central manifold. Guinea pigs are exposed to an aerosol of a test compound or vehicle (WFI). […] This is measured gravimetrically by comparing pre-and post-nebulization weights of the filled nebulizer.
The bronchoprotective effects of test compounds administered via inhalation are evaluated using whole body plethysmography at 1.5, 24, 48 and 72 hours post-dose.
Forty-five minutes prior to the start of the pulmonary evaluation, each guinea pig is anesthetized with an intramuscular injection of ketamine (43.75 mg/kg), xylazine (3.50 mg/kg) and acepromazine (1.05 mg/kg). […] The depth of anesthesia is monitored and adjusted if the animal responds to pinching of its paw or if the respiration rate is greater than 100 breaths/minute. […]
Starting this program initiates the experimental protocol and data collection. […] By integrating this signal over time, a measurement of […] is calculated for each breath. […]

O=C(CCN1CCC(OC(=O)Nc2ccccc2-c2ccccc2)CC1)NCCCCCNCc1ccc(O)cc1 [compound of formula I, biphenyl-2-ylcarbamic acid 1-{2-[5-(4-hydroxybenzylamino)pentylcarbamoyl]ethyl}piperidin-4-yl ester]
pKi [1]: > 8.00 | PD2(50) for ACh-induced bronchoconstriction [2]: less than 200 μg/mL
